# Source: patent US20130323167A1, “DETECTING AND TREATING SOLID TUMORS THROUGH SELECTIVE DISRUPTION OF TUMOR VASCULATURE” (THE JOHNS HOPKINS UNIVERSITY, priority 2010, published 2013)
# Assays:
# subcutaneous CT26 tumors = assay type: in vivo, BALB/c mice; conditions: injection of the agent instead of TNF-α
# Experimental: All animal experiments were overseen and approved by the Animal Welfare Committee of Johns Hopkins University, and were in compliance with the University standards. For the subcutaneous tumor model, female, six to eight week-old BALB/c mice (Harlan Breeders) were used. Five million CT26 cells were injected subcutaneously into the right flank of each mouse and allowed to grow for ˜10 days before randomization, group assignment, and treatment. C. novyi-NT spores were administered by a bolus tail vein injection of 300 million spores suspended in 0.2 mL of phosphate buffered saline, pH 7.5 (PBS). Cytotoxic anticancer agents were administered 16 hours later via the same route. TNF-α was reconstituted freshly before administration in doubly-distilled H2O at 100 ng/mL and diluted into 0.1% (w/v) BSA in PBS at a final concentration of 10 ng/mL. Cytotoxic agents were injected within a few minutes thereafter. Tumor volume was calculated as […]. For the orthotopic brain tumor model, female C57BL6 mice, 5-6 weeks of age, were purchased from the NCI-Frederick. […] Animals were monitored for potential side effects following drug administration. […]
# CT26 tumors = experiment: Treatment of fully developed subcutaneous CT26 tumors (tumor volume, survival); assay type: in vivo, BALB/c mice; conditions: TNF-α 25 ng/kg combined with Doxil or ^131I-labeled IgG
# Experimental: For the subcutaneous tumor model, female, six to eight week-old BALB/c mice (Harlan Breeders) were used. Five million CT26 cells were injected subcutaneously into the right flank of each mouse and allowed to grow for ˜10 days before randomization, group assignment, and treatment. C. novyi-NT spores were administered by a bolus tail vein injection of 300 million spores suspended in 0.2 mL of phosphate buffered saline, pH 7.5 (PBS). Cytotoxic anticancer agents were administered 16 hours later via the same route. TNF-α was reconstituted freshly before administration in doubly-distilled H2O at 100 ng/mL and diluted into 0.1% (w/v) BSA in PBS at a final concentration of 10 ng/mL. Cytotoxic agents were injected within a few minutes thereafter. Tumor volume was calculated as length×width×0.5.
# [1] = multiple injections (3 infusions/week) of a dose comparable to the highest mouse dose; cited from earlier work
Compound,induction of E^2PR by microtubule-interacting agent (subcutaneous CT26 tumors),cures and survival at lower dose of TNF-α (CT26 tumors),tolerability in humans [1]
"COc1ccc(/C=C\c2cc(OC)c(OC)c(OC)c2)cc1OP(=O)(O)O [Combretastatin A4P, combretastatin A4 phosphate]","resulted in E^2PR, though not as impressively as TNF-α",,
CCC1=C[C@@H]2CN(C1)Cc1c([nH]c3ccccc13)[C@@](C(=O)OC)(c1cc3c(cc1OC)N(C)[C@H]1[C@@](O)(C(=O)OC)[C@H](OC(C)=O)[C@]4(CC)C=CCN5CC[C@]31[C@@H]54)C2 [vinorelbine],"resulted in E^2PR, though not as impressively as TNF-α",,
TNF-α,,"none of the treated animals were cured, although prolonged survival was observed",tolerate
